Viscosity and mass density data for two molecules are collected here from the NIST ThermoML archive (doi:10.1016/j.jct.2008.12.022).

The conditions of the series: 101.33 kPa, Liquid; for viscosity: Capillary tube (Ostwald / Ubbelohde) method; for mass density: Pycnometric method.

± gives the expanded uncertainty stated by the source.

Turning to `CC(O)CO` (stereo not given) [1,2-propanediol], the viscosity (303.15 K) is 32.4 ± 0.73 mPa·s; the viscosity (313.15 K) came to 19.12 ± 0.45 mPa·s; the viscosity (323.15 K) is listed as 12.1 ± 0.28 mPa·s; the viscosity (333.15 K) is given as 8.19 ± 0.18 mPa·s; the viscosity (343.15 K) turned out to be 5.704 ± 0.13 mPa·s. In addition, the mass density (303.15 K) came to 1029 ± 1 kg/m3; the mass density (313.15 K) turned out to be 1021 ± 1 kg/m3; the mass density (323.15 K) came to 1014 ± 1 kg/m3; the mass density (333.15 K) is given as 1006 ± 1 kg/m3; the mass density (343.15 K) was 999 ± 1 kg/m3.
With `OCCOCCOCCO` [triethylene glycol], the viscosity reads like this: (303.15 K) 29.27 ± 0.7 mPa·s; (313.15 K) 18.96 ± 0.46 mPa·s; (323.15 K) 12.96 ± 0.31 mPa·s; (333.15 K) 9.288 ± 0.22 mPa·s; (343.15 K) 6.906 ± 0.17 mPa·s. Further, the mass density is 1116 ± 2 kg/m3 (303.15 K); 1109 ± 2 kg/m3 (313.15 K); 1101 ± 2 kg/m3 (323.15 K); 1093 ± 2 kg/m3 (333.15 K); 1086 ± 2 kg/m3 (343.15 K).

The term viscosity denotes the internal friction of a fluid under shear. The term mass density denotes the mass of a sample divided by its volume.
